According to PubChem BioAssay AID1918952 (Molecular Pharmacology Branch, DTP, NCI, 2023):

Tested on: LG0703-F948-PDC complex spheroid viability
Assay: Anticancer human tumor LG0703-F948-PDC patient-derived lung adenocarcinoma cell line growth inhibition
Conditions: for IC50: curve of first compound; for viability, T/C: stronger effect = lower value
Method in brief: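 Drug combinations with the LSD1 inhibitor iadademstat tested on tumor cells co-cultured as spheroids with endothelial cells and mesenchymal stem cells. Concentrations descended in half-log increments from clinical Cmax or 10 microM.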

[1] = second compound 0.1 µM, first compound 0.0316 µM
[2] = second compound 0.1 µM, first compound 0.1 µM
[3] = second compound 0.1 µM, first compound 0.316 µM
[4] = second compound 0.1 µM, first compound 1 µM
[5] = second compound 0.1 µM, first compound 3.16 µM
[6] = second compound 0.1 µM, first compound 10 µM
[7] = second compound 0.316 µM, first compound 0.0316 µM
[8] = second compound 0.316 µM, first compound 0.1 µM
[9] = second compound 0.316 µM, first compound 0.316 µM
[10] = second compound 0.316 µM, first compound 1 µM
[11] = second compound 0.316 µM, first compound 3.16 µM
[12] = second compound 0.316 µM, first compound 10 µM
[13] = second compound 1 µM, first compound 0.0316 µM
[14] = second compound 1 µM, first compound 0.1 µM
[15] = second compound 1 µM, first compound 0.316 µM
[16] = second compound 1 µM, first compound 1 µM
[17] = second compound 1 µM, first compound 3.16 µM
[18] = second compound 1 µM, first compound 10 µM
[19] = second compound 3.16 µM, first compound 0.0316 µM
[20] = second compound 3.16 µM, first compound 0.1 µM
[21] = second compound 3.16 µM, first compound 0.316 µM
[22] = second compound 3.16 µM, first compound 1 µM
[23] = second compound 3.16 µM, first compound 3.16 µM
[24] = second compound 3.16 µM, first compound 10 µM
[25] = second compound 10 µM, first compound 0.0316 µM
[26] = second compound 10 µM, first compound 0.1 µM
[27] = second compound 10 µM, first compound 0.316 µM
[28] = second compound 10 µM, first compound 1 µM
[29] = second compound 10 µM, first compound 3.16 µM
[30] = second compound 10 µM, first compound 10 µM
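Note: spheroids exposed to agents for seven days before readout.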
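Throughout, for viability, T/C: 100% = DMSO vehicle control wells as normalization base.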

CC(C)c1c(-c2ccccc2)nc2c(C#N)c[nH]n2c1=O + NC1CC1c1ccc(-c2cccc(O)c2)cc1
IC50 (second compound 0.1 µM): > 10 µM
IC50 (second compound 0.316 µM): > 10 µM
IC50 (second compound 1 µM): > 10 µM
IC50 (second compound 3.16 µM): > 10 µM
IC50 (second compound 10 µM): > 10 µM
viability, T/C [1]: 107%
viability, T/C [2]: 102%
viability, T/C [3]: 115%
viability, T/C [4]: 94.3%
viability, T/C [5]: 110%
viability, T/C [6]: 82.7%
viability, T/C [7]: 97.5%
viability, T/C [8]: 106%
viability, T/C [9]: 117%
viability, T/C [10]: 108%
viability, T/C [11]: 104%
viability, T/C [12]: 91.8%
viability, T/C [13]: 102%
viability, T/C [14]: 109%
viability, T/C [15]: 109%
viability, T/C [16]: 109%
viability, T/C [17]: 90.6%
viability, T/C [18]: 69.7%
viability, T/C [19]: 97.7%
viability, T/C [20]: 93.4%
viability, T/C [21]: 92.5%
viability, T/C [22]: 99.8%
viability, T/C [23]: 80.3%
viability, T/C [24]: 82.3%
viability, T/C [25]: 97.9%
viability, T/C [26]: 97.6%
viability, T/C [27]: 94.9%
viability, T/C [28]: 85.3%
viability, T/C [29]: 88.8%
viability, T/C [30]: 74.2%

CC1COCCN1c1cc(-c2ccnn2C)c2ccnc(-c3ccn[nH]3)c2n1 (stereo not given) + NC1CC1c1ccc(-c2cccc(O)c2)cc1
IC50 (second compound 0.1 µM): 0.0374 µM
IC50 (second compound 0.316 µM): 0.0444 µM
IC50 (second compound 1 µM): 0.0491 µM
IC50 (second compound 3.16 µM): 0.0437 µM
IC50 (second compound 10 µM): 0.0463 µM
viability, T/C (second compound 0.1 µM, first compound 0.00316 µM): 80.4%
viability, T/C (second compound 0.1 µM, first compound 0.01 µM): 74.6%
viability, T/C [1]: 49.8%
viability, T/C [2]: 32.7%
viability, T/C [3]: 20.2%
viability, T/C [4]: 7.17%
viability, T/C (second compound 0.316 µM, first compound 0.00316 µM): 85.5%
viability, T/C (second compound 0.316 µM, first compound 0.01 µM): 72.3%
viability, T/C [7]: 57.9%
viability, T/C [8]: 33.9%
viability, T/C [9]: 18.7%
viability, T/C [10]: 6.39%
viability, T/C (second compound 1 µM, first compound 0.00316 µM): 73%
viability, T/C (second compound 1 µM, first compound 0.01 µM): 70.2%
viability, T/C [13]: 64.1%
viability, T/C [14]: 27.9%
viability, T/C [15]: 21.6%
viability, T/C [16]: 6.68%
viability, T/C (second compound 3.16 µM, first compound 0.00316 µM): 80.8%
viability, T/C (second compound 3.16 µM, first compound 0.01 µM): 77%
viability, T/C [19]: 55.7%
viability, T/C [20]: 31.4%
viability, T/C [21]: 19.1%
viability, T/C [22]: 6.21%
viability, T/C (second compound 10 µM, first compound 0.00316 µM): 91.1%
viability, T/C (second compound 10 µM, first compound 0.01 µM): 82.3%
viability, T/C [25]: 60.4%
viability, T/C [26]: 28.6%
viability, T/C [27]: 18.8%
viability, T/C [28]: 8.21%

CC1COCCN1c1cc(C2(S(C)(=N)=O)CC2)nc(-c2ccnc3[nH]ccc23)n1 (stereo not given) + NC1CC1c1ccc(-c2cccc(O)c2)cc1
IC50 (second compound 0.1 µM): 5 µM
IC50 (second compound 0.316 µM): 4.65 µM
IC50 (second compound 1 µM): 5.24 µM
IC50 (second compound 3.16 µM): 3.55 µM
IC50 (second compound 10 µM): 3.92 µM
viability, T/C [1]: 120%
viability, T/C [2]: 104%
viability, T/C [3]: 92.9%
viability, T/C [4]: 92.1%
viability, T/C [5]: 69.7%
viability, T/C [6]: 24.1%
viability, T/C [7]: 111%
viability, T/C [8]: 101%
viability, T/C [9]: 118%
viability, T/C [10]: 97%
viability, T/C [11]: 63.8%
viability, T/C [12]: 23.6%
viability, T/C [13]: 111%
viability, T/C [14]: 97.9%
viability, T/C [15]: 113%
viability, T/C [16]: 102%
viability, T/C [17]: 70.8%
viability, T/C [18]: 23.4%
viability, T/C [19]: 96%
viability, T/C [20]: 89.8%
viability, T/C [21]: 102%
viability, T/C [22]: 79.5%
viability, T/C [23]: 54.1%
viability, T/C [24]: 22.4%
viability, T/C [25]: 96.5%
viability, T/C [26]: 98.9%
viability, T/C [27]: 91.1%
viability, T/C [28]: 79.7%
viability, T/C [29]: 58.6%
viability, T/C [30]: 14.8%
